Assay results published in patent US11649255B2, “Indazoles as hematopoietic progenitor kinase 1 (HPK1) inhibitors and methods using same” (1st Biotherapeutics, Inc., priority 2020, dated 2023).
Like-named read-outs stand apart in the source and are kept apart here.

Assays:
[1] = system: human peripheral blood pan T cells; assay: IFNγ and IL-2 analysis of human peripheral pan T cells; type: cell-based; conditions: T-cell, CD3/CD28 bead stimulation, 100 nM Prostaglandin E2, 24 hr
Protocol: IFNγ and IL-2 Analysis of Human Peripheral Pan T Cells
Human peripheral blood pan T cells were purchased from STEMCELL™ Technologies Inc. Human peripheral blood pan T cells were thawed and suspended in DMEM media (10% FBS and 10 Penicillin/Streptomycin). 8×10^4 T cells were seeded in 96-well plate and incubated with various concentration of compounds and 100 nM Prostaglandin E2 for 1 hr. T cells were stimulated with Dynabeads Human T-Activator CD3/CD28 (Life Technologies) at a 1:3 cells: beads ratio. […] Data were analyzed with an MESO Quickplex SQ120 (Mesoscale Discovery).
In Table 3, the values represent + for >1000 nM, ++ 200-1,000 nM, +++ for <200 nM and − for not determined.

[2] = target: recombinant human HPK1 (Homo sapiens (Human), UniProt Q92918); assay: HPK1 kinase assay (ADP-Glo); type: biochemical; conditions: 25 μM ATP, MBP substrate
Chain of recombinant human HPK1 (Q92918 whole entry): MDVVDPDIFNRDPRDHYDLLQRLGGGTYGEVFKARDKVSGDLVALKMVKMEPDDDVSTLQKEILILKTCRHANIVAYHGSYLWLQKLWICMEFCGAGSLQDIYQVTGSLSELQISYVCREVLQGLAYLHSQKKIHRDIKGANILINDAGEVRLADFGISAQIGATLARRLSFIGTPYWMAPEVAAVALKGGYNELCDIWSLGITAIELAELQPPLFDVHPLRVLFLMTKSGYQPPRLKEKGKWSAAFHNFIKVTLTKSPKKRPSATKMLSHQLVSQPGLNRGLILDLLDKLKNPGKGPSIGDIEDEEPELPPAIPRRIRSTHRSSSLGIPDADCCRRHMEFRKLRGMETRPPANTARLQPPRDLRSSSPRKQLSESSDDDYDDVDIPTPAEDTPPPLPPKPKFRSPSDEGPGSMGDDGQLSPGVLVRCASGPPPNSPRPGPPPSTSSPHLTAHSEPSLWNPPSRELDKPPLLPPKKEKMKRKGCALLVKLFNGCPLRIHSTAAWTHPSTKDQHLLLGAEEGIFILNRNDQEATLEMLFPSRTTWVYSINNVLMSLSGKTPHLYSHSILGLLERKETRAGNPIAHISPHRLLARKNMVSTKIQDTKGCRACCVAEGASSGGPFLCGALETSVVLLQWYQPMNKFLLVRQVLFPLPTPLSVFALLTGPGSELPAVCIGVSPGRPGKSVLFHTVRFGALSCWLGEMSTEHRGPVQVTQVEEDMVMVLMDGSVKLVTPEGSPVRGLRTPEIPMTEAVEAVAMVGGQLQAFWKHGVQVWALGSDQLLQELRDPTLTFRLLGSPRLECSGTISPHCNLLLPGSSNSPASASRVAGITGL
In short: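 Activity was read as ADP formed, detected by ADP-Glo luminescence after the reaction of 5 ng recombinant human HPK1 with MBP and ATP (stocks 0.5 μg/μl and 25 μM) for 40 min at 30 °C. Buffer was Tris pH 7.5 with MgCl2, BSA and DTT, with compound in 0.5% DMSO. IC50 came from inhibition curves.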

[3] = IFNγ secretion, read-out: IFNγ (EC50)
[4] = IL-2 secretion, read-out: IL-2 (EC50)

Row | Structure (SMILES) | EC50 [1, 3] [nM] | EC50 [1, 4] [nM] | IC50 [2] [nM]
1 | CCc1c(F)c(SCC(=O)NC)c2[nH]ncc2c1-c1ccn2nc(NC(=O)[C@@H]3C[C@@H]3F)cc2c1 [Example 521, (1S,2S)-N-(5-(5-ethyl-6-fluoro-7-((2-(methylamino)-2-oxoethyl)thio)-1H-indazol-4-yl)pyrazolo[1,5-a]pyridin-2-yl)-2-fluorocyclopropane-1-carboxamide bis(2,2,2-trifluoroacetate)] | < 200 | < 200 | < 100
2 | CN(C)c1c(F)c(Cl)c(-c2ccc3nc(NC(=O)[C@@H]4C[C@H]4F)cn3c2)c2cn[nH]c12 [Example 333, (1S,2R)-N-(6-(5-chloro-7-(dimethylamino)-6-fluoro-1H-indazol-4-yl)imidazo[1,2-a]pyridin-2-yl)-2-fluorocyclopropane-1-carboxamide] | 200 to 1000 | 200 to 1000 | < 100
3 | CCOc1c(F)c(CC)c(-c2ccn3nc(NC(=O)[C@@H]4C[C@@H]4F)cc3c2)c2cn[nH]c12 [Example 531, (1S,2S)-N-(5-(7-ethoxy-5-ethyl-6-fluoro-1H-indazol-4-yl)pyrazolo[1,5-a]pyridin-2-yl)-2-fluorocyclopropane-1-carboxamide] | < 200 | 200 to 1000 | < 100
4 | Cc1c(F)c(C(=O)N(C)C)c2[nH]ncc2c1-c1ccn2nc(NC(=O)[C@@H]3C[C@@H]3F)cc2c1 [Example 570, 6-fluoro-4-(2-((1S,2S)-2-fluorocyclopropane-1-carboxamido)pyrazolo[1,5-a]pyridin-5-yl)-N,N,5-trimethyl-1H-indazole-7-carboxamide] | < 200 | 200 to 1000 | < 100
5 | CSc1c(F)c(F)c2[nH]ncc2c1-c1ccn2nc(NC(=O)[C@@H]3C[C@@H]3F)cc2c1 [Example 541, (1S,2S)-N-(5-(6,7-difluoro-5-(methylthio)-1H-indazol-4-yl)pyrazolo[1,5-a]pyridin-2-yl)-2-fluorocyclopropane-1-carboxamide] | 200 to 1000 |  | < 100
6 | CC(=O)N(C)c1c(F)c(Cl)c(-c2ccc3nc(NC(=O)[C@@H]4C[C@@H]4F)sc3c2)c2cn[nH]c12 [Example 123, (1S,2S)-N-(6-(5-chloro-6-fluoro-7-(N-methylacetamido)-1H-indazol-4-yl)benzo[d]thiazol-2-yl)-2-fluorocyclopropane-1-carboxamide] | 200 to 1000 | > 1000 | < 100
7 | CCc1c(F)c(SCC(=O)NC)c2[nH]ncc2c1-c1ccc2nc(NC(=O)[C@@H]3C[C@@H]3F)sc2n1 [Example 167, (1S,2S)-N-(5-(5-ethyl-6-fluoro-7-((2-(methylamino)-2-oxoethyl)thio)-1H-indazol-4-yl)thiazolo[5,4-b]pyridin-2-yl)-2-fluorocyclopropane-1-carboxamide] | 200 to 1000 | > 1000 | < 100
8 | CCOc1c(F)c(C)c(-c2ccc3nc(NC(=O)[C@@H]4C[C@@H]4F)sc3n2)c2cn[nH]c12 [Example 175, (1S,2S)-N-(5-(7-ethoxy-6-fluoro-5-methyl-1H-indazol-4-yl)thiazolo[5,4-b]pyridin-2-yl)-2-fluorocyclopropane-1-carboxamide] | < 200 |  | < 100
9 | CSc1c(F)c(Cl)c(-c2ccc3nc(NC(=O)[C@@H]4C[C@@H]4F)sc3n2)c2cn[nH]c12 [Example 174, (1S,2S)-N-(5-(5-chloro-6-fluoro-7-(methylthio)-1H-indazol-4-yl)thiazolo[5,4-b]pyridin-2-yl)-2-fluorocyclopropane-1-carboxamide] | 200 to 1000 |  | < 100
10 | Cc1c(F)c(Cl)c(-c2ccn3nc(NC(=O)[C@@H]4C[C@@H]4F)cc3c2)c2cn[nH]c12 [Example 579, (1S,2S)-N-(5-(5-chloro-6-fluoro-7-methyl-1H-indazol-4-yl)pyrazolo[1,5-a]pyridin-2-yl)-2-fluorocyclopropane-1-carboxamide] | < 200 | > 1000 | < 100
11 | CCc1c(F)c(N(C)C)c2[nH]ncc2c1-c1ccc2nc(NC(=O)[C@@H]3C[C@@H]3F)cn2c1 [Example 291, (1S,2S)-N-(6-(7-(dimethylamino)-5-ethyl-6-fluoro-1H-indazol-4-yl)imidazo[1,2-a]pyridin-2-yl)-2-fluorocyclopropane-1-carboxamide] | < 200 | 200 to 1000 | < 100

More lines, now with the values ahead:

Row | EC50 [1, 3] [nM] | EC50 [1, 4] [nM] | IC50 [2] [nM] | Structure (SMILES)
12 | 200 to 1000 | 200 to 1000 | < 100 | CSc1c(F)cc2[nH]ncc2c1-c1ccn2nc(NC(=O)[C@@H]3C[C@@H]3F)cc2c1 [Example 530, (1S,2S)-2-fluoro-N-(5-(6-fluoro-5-(methylthio)-1H-indazol-4-yl)pyrazolo[1,5-a]pyridin-2-yl)cyclopropane-1-carboxamide]
13 | 200 to 1000 | > 1000 | < 100 | Cc1c(F)c(N(C)C)c2[nH]ncc2c1-c1ccc2nc(NC(=O)[C@@H]3C[C@@H]3F)sc2c1 [Example 104, (1S,2S)-N-(6-(7-(dimethylamino)-6-fluoro-5-methyl-1H-indazol-4-yl)benzo[d]thiazol-2-yl)-2-fluorocyclopropane-1-carboxamide]
14 | < 200 | 200 to 1000 | < 100 | CSc1c(F)c(N(C)C)c2[nH]ncc2c1-c1ccn2nc(NC(=O)[C@@H]3C[C@@H]3F)cc2c1 [Example 558, (1S,2S)-N-(5-(7-(dimethylamino)-6-fluoro-5-(methylthio)-1H-indazol-4-yl)pyrazolo[1,5-a]pyridin-2-yl)-2-fluorocyclopropane-1-carboxamide]
15 | 200 to 1000 |  | < 100 | CCOc1c(F)c(CC)c(-c2ccc3nc(NC(=O)[C@@H]4C[C@@H]4F)sc3c2)c2cn[nH]c12 [Example 107, (1S,2S)-N-(6-(7-ethoxy-5-ethyl-6-fluoro-1H-indazol-4-yl)benzo[d]thiazol-2-yl)-2-fluorocyclopropane-1-carboxamide]
16 | < 200 | < 200 | < 100 | CCNc1c(F)c(CC)c(-c2ccn3nc(NC(=O)[C@@H]4C[C@@H]4F)cc3c2)c2cn[nH]c12 [Example 524, (1S,2S)-N-(5-(5-ethyl-7-(ethylamino)-6-fluoro-1H-indazol-4-yl)pyrazolo[1,5-a]pyridin-2-yl)-2-fluorocyclopropane-1-carboxamide]
17 | 200 to 1000 | 200 to 1000 | < 100 | CSc1c(F)cc2[nH]ncc2c1-c1ccc2nc(NC(=O)[C@@H]3C[C@@H]3F)sc2n1 [Example 156, (1S,2S)-2-fluoro-N-(5-(6-fluoro-5-(methylthio)-1H-indazol-4-yl)thiazolo[5,4-b]pyridin-2-yl)cyclopropane-1-carboxamide]
18 | < 200 | 200 to 1000 | < 100 | CN(C)c1c(F)c(Cl)c(-c2ccc3nc(NC(=O)[C@@H]4C[C@@H]4F)cn3c2)c2cn[nH]c12 [Example 258, (1S,2S)—N-(6-(5-chloro-7-(dimethylamino)-6-fluoro-1H-indazol-4-yl)imidazo[1,2-a]pyridin-2-yl)-2-fluorocyclopropane-1-carboxamide]
19 | 200 to 1000 | > 1000 | < 100 | CN(C)C(=O)c1c(F)c(Cl)c(-c2ccc3nc(NC(=O)[C@@H]4C[C@@H]4F)sc3n2)c2cn[nH]c12 [Example 193, 5-chloro-6-fluoro-4-(2-((1S,2S)-2-fluorocyclopropane-1-carboxamido)thiazolo[5,4-b]pyridin-5-yl)-N,N-dimethyl-1H-indazole-7-carboxamide]
